Reference: patent publication US10765114B2, “4-amino-6-(pyridyl and 2-substitutedphenyl)-picolinates and 6-amino-2-(pyridyl and 2-substitutedphenyl)-pyrimidine-4-carboxylates and their use as herbicides” (Dow AgroSciences LLC, priority 2013, dated 2020)
Where two headings read alike, the source gives them in different places.

Tests used:
[1] = system: Key Grass and Sedge Weeds as well as Grass Crops; assay: Post-Emergent Test II (Table 6); format: in vivo; settings: for Visual Growth Reduction (%) 14 Days After Application, CYPSS: CYPSS (CYPES: yellow nutsedge, Cyperus esculentus); for Visual Growth Reduction (%) 14 Days After Application, DIGSA: DIGSA: crabgrass (Digitaria sanguinalis); for Visual Growth Reduction (%) 14 Days After Application, ECHSS: ECHSS (ECHCG: barnyardgrass, Echinochloa crus-galli); for Visual Growth Reduction (%) 14 Days After Application, ORYSS: ORYSS (ORYSA: rice, Oryza sativa); for Visual Growth Reduction (%) 14 Days After Application, ORYSS / Visual Growth Reduction (%) 14 Days After Application, TRZSS / Visual Growth Reduction (%) 14 Days After Application, ZEAMX: crop; for Visual Growth Reduction (%) 14 Days After Application, SETFA: SETFA: giant foxtail (Setaria faberi); for Visual Growth Reduction (%) 14 Days After Application, SORVU: SORVU: johnsongrass (Sorghum vulgare); for Visual Growth Reduction (%) 14 Days After Application, TRZSS: TRZSS (TRZAS: wheat, spring, Triticum aestivum); for Visual Growth Reduction (%) 14 Days After Application, ZEAMX: ZEAMX: maize, corn (Zea mays)
Procedure: (§1) Seeds or nutlets of the desired test plant species were planted in Sun Gro Metro-Mix® 360 planting mixture, which typically has a pH of 6.0 to 6.8 and an organic matter content of about 30 percent, in plastic pots with a surface area of 64 square centimeters. When required to ensure good germination and healthy plants, a fungicide treatment and/or other chemical or physical treatment was applied. The plants were grown for 7-21 days in a greenhouse with an approximate 15 h photoperiod which was maintained at about 23-29° C. during the day and 22-28° C. during the night. Nutrients and water were added on a regular basis and supplemental lighting was provided with overhead metal halide 1000-Watt lamps as necessary. The plants were employed for testing when they reached the first or second true leaf stage.
(§2) A weighed amount, determined by the highest rate to be tested, of each test compound was placed in a 25 mL glass vial and was dissolved in 4 mL of a 97:3 v/v mixture of acetone and DMSO to obtain concentrated stock solutions. […] The concentrated stock solutions obtained were diluted with 20 mL of an aqueous mixture containing acetone, water, isopropyl alcohol, DMSO, Atplus 411F crop oil concentrate, and Triton® X-155 surfactant in a 48.5:39:10:1.5:1.0:0.02 v/v ratio to obtain spray solutions containing the highest application rates. Additional application rates were obtained by serial dilution of 12 mL of the high rate solution into a solution containing 2 mL of 97:3 v/v mixture of acetone and DMSO and 10 mL of an aqueous mixture containing acetone, water, isopropyl alcohol, DMSO, Atplus 411F crop oil concentrate, and Triton X-155 surfactant in a 48.5:39:10:1.5:1.0:0.02 v/v ratio to obtain ½×, ¼×, ⅛× and 1/16× rates of the high rate. Compound requirements are based upon a 12 mL application volume at a rate of 187 liters per hectare (L/ha). Formulated compounds were applied to the plant material with an overhead Mandel track sprayer equipped with 8002E nozzles calibrated to deliver 187 L/ha over an application area of 0.503 square meters at a spray height of 18 inches (43 cm) above the average plant canopy height. Control plants were sprayed in the same manner with the solvent blank.
(§3) The treated plants and control plants were placed in a greenhouse as described above and watered by subirrigation to prevent wash-off of the test compounds. After 14 days, the condition of the test plants as compared with that of the untreated plants was determined visually and scored on a scale of 0 to 100 percent where 0 corresponds to no injury and 100 corresponds to complete kill and presented as indicated in Table A. Some of the compounds tested, application rates employed, plant species tested, and results are given in Table 5.

[2] = system: Key Broadleaf Weed and Crop Species; assay: Post-Emergent Test II (Table 5); format: in vivo; settings: post-emergence, 336 h; for pest or weed control at 70 g/ha: application rate 70 (kg ai/ha; footnote: g ai/ha); for pest or weed control at 140 g/ha: application rate 140 (kg ai/ha; footnote: g ai/ha)
Procedure: as §1, §2, §3

[3] = Abutilon theophrasti, ABUTH: velvetleaf (Abutilon theophrasti), read-out: Visual Growth Reduction (%) 14 Days After Application ABUTH
[4] = Amaranthus retroflexus, AMARE: redroot pigweed (Amaranthus retroflexus), read-out: Visual Growth Reduction (%) 14 Days After Application AMARE
[5] = Brassica napus, BRSSS: oilseed rape, canola (Brassica napus), read-out: Visual Growth Reduction (%) 14 Days After Application BRSSS
[6] = Chenopodium album, CHEAL: lambsquarters (Chenopodium album), read-out: Visual Growth Reduction (%) 14 Days After Application CHEAL
[7] = Euphorbia heterophylla, EPHHL: wild poinsettia (Euphorbia heterophylla), read-out: Visual Growth Reduction (%) 14 Days After Application EPHHL
[8] = Helianthus annuus, HELAN: sunflower (Helianthus annuus), read-out: Visual Growth Reduction (%) 14 Days After Application HELAN
[9] = Viola tricolor, VIOTR: wild pansy (Viola tricolor), read-out: Visual Growth Reduction (%) 14 Days After Application VIOTR

Nc1cc(-c2ccc(Cl)c(F)c2C(F)F)nc(C(=O)O)c1Cl [Compound 13, 4-Amino-3-chloro-6-(4-chloro-2-(difluoromethyl)-3-fluorophenyl)picolinic acid]
G (0-29): Visual Growth Reduction (%) 14 Days After Application, CYPSS ([1]; 70 g ai/ha) | Visual Growth Reduction (%) 14 Days After Application, CYPSS ([1]; 140 g ai/ha) | Visual Growth Reduction (%) 14 Days After Application, DIGSA ([1]; 70 g ai/ha) | Visual Growth Reduction (%) 14 Days After Application, DIGSA ([1]; 140 g ai/ha) | Visual Growth Reduction (%) 14 Days After Application, ECHSS ([1]; 70 g ai/ha) | Visual Growth Reduction (%) 14 Days After Application, ECHSS ([1]; 140 g ai/ha) | Visual Growth Reduction (%) 14 Days After Application, ORYSS ([1]; 70 g ai/ha) | Visual Growth Reduction (%) 14 Days After Application, ORYSS ([1]; 140 g ai/ha) | Visual Growth Reduction (%) 14 Days After Application, SETFA ([1]; 70 g ai/ha) | Visual Growth Reduction (%) 14 Days After Application, SETFA ([1]; 140 g ai/ha) | Visual Growth Reduction (%) 14 Days After Application, SORVU ([1]; 70 g ai/ha) | Visual Growth Reduction (%) 14 Days After Application, SORVU ([1]; 140 g ai/ha) | Visual Growth Reduction (%) 14 Days After Application, TRZSS ([1]; 70 g ai/ha) | Visual Growth Reduction (%) 14 Days After Application, TRZSS ([1]; 140 g ai/ha) | Visual Growth Reduction (%) 14 Days After Application, ZEAMX ([1]; 70 g ai/ha) | Visual Growth Reduction (%) 14 Days After Application, ZEAMX ([1]; 140 g ai/ha)
85 to 94%: pest or weed control at 70 g/ha [2, 5] | pest or weed control at 140 g/ha [2, 5] | pest or weed control at 70 g/ha [2, 8] | pest or weed control at 140 g/ha [2, 8]
0 to 29%: pest or weed control at 140 g/ha [2, 3] | pest or weed control at 70 g/ha [2, 7] | pest or weed control at 140 g/ha [2, 7] | pest or weed control at 70 g/ha [2, 9] | pest or weed control at 140 g/ha [2, 9]
95 to 100%: pest or weed control at 70 g/ha [2, 4] | pest or weed control at 140 g/ha [2, 4] | pest or weed control at 70 g/ha [2, 6] | pest or weed control at 140 g/ha [2, 6]
75 to 84%: pest or weed control at 70 g/ha [2, 3]

Nc1c(F)c(-c2ccc(Cl)c(F)c2Cl)nc(C(=O)O)c1Cl [Compound 16, 4-Amino-3-chloro-6-(2,4-dichloro-3-fluorophenyl)-5-fluoropicolinic acid]
85 to 94%: pest or weed control at 70 g/ha [2, 3] | pest or weed control at 70 g/ha [2, 7]
B (85-94): Visual Growth Reduction (%) 14 Days After Application, CYPSS ([1]; 140 g ai/ha) | Visual Growth Reduction (%) 14 Days After Application, DIGSA ([1]; 140 g ai/ha) | Visual Growth Reduction (%) 14 Days After Application, ECHSS ([1]; 70 g ai/ha) | Visual Growth Reduction (%) 14 Days After Application, SORVU ([1]; 140 g ai/ha) | Visual Growth Reduction (%) 14 Days After Application, TRZSS ([1]; 70 g ai/ha) | Visual Growth Reduction (%) 14 Days After Application, TRZSS ([1]; 140 g ai/ha) | Visual Growth Reduction (%) 14 Days After Application, ZEAMX ([1]; 70 g ai/ha) | Visual Growth Reduction (%) 14 Days After Application, ZEAMX ([1]; 140 g ai/ha)
95 to 100%: pest or weed control at 140 g/ha [2, 3] | pest or weed control at 70 g/ha [2, 4] | pest or weed control at 140 g/ha [2, 4] | pest or weed control at 70 g/ha [2, 5] | pest or weed control at 140 g/ha [2, 5] | pest or weed control at 70 g/ha [2, 6] | pest or weed control at 140 g/ha [2, 6] | pest or weed control at 140 g/ha [2, 7] | pest or weed control at 70 g/ha [2, 8] | pest or weed control at 140 g/ha [2, 8] | pest or weed control at 70 g/ha [2, 9] | pest or weed control at 140 g/ha [2, 9]
E (45-59): Visual Growth Reduction (%) 14 Days After Application, ORYSS ([1]; 140 g ai/ha)
C (75-84): Visual Growth Reduction (%) 14 Days After Application, DIGSA ([1]; 70 g ai/ha) | Visual Growth Reduction (%) 14 Days After Application, SORVU ([1]; 70 g ai/ha)
F (30-44): Visual Growth Reduction (%) 14 Days After Application, ORYSS ([1]; 70 g ai/ha)
A (95-100): Visual Growth Reduction (%) 14 Days After Application, CYPSS ([1]; 70 g ai/ha) | Visual Growth Reduction (%) 14 Days After Application, ECHSS ([1]; 140 g ai/ha) | Visual Growth Reduction (%) 14 Days After Application, SETFA ([1]; 70 g ai/ha) | Visual Growth Reduction (%) 14 Days After Application, SETFA ([1]; 140 g ai/ha)
